{"source": "patent US20090163591A1", "about": "“USE OF SUGAR PHOSPHATES, SUGAR PHOSPHATE ANALOGS, AMINO ACIDS AND/OR AMINO ACID ANALOGS FOR MODULATING THE GLUCOLYSIS-ENZYME COMPLEX, THE MALATE ASPARATE SHUTTLE AND/OR THE TRANSAMINASES” (priority 2001, published 2009)", "key": {"[1]": {"tested_on": "Novikoff hepatoma cells", "assay": "Dose-dependence of proliferation inhibition, cell density of cultivated Novikoff hepatoma cells", "format": "cell-based, rat", "conditions": "four days of cultivation, at higher dosage levels", "method": "For the experiments, Novikoff hepatoma cells were cultivated in a conventional manner. The control substance contained a solvent without an active ingredient. The other groups received different doses of a respective test compound. After four days of cultivation with or without active ingredient, the cell density was determined using standard methods. In FIG. 2 is shown the dose-dependence of obtained cell densities for aminooxyacetate, in FIG. 3 for CHBA, in FIG. 4 for glycerate-2,3-bisphosphate, and in FIG. 5 for fructose-1,6-bisphosphate."}, "[2]": {"tested_on": "Novikoff hepatoma", "assay": "Novikoff hepatoma tumor model in rats, IV infusion, tumor volume", "format": "in vivo, rat", "conditions": "for inhibition of tumor growth if the tumor was relatively small at the beginning of the treatment: Novikoff hepatoma, IV infusion, in some cases apoptosis; for inhibition of the tumor growth (tumor size): subcutaneous Novikoff hepatoma, continuous IV infusion over 10 days, 1.25 mM aminooxyacetate or 10 μM CHBA, beginning with a tumor volume of 1 ml, vs NaCl control", "method": "As a tumor model, immuno-competent adult rats were used, treated with IV infusion. This animal model provides better correlation to human therapy than immuno-incompetent nude mice, which are commonly used. The animal tests were approved according to paragraph 8 section 1 of the German Animal Protection Act, and were performed according to the recommendations of the Tieraerztliche Vereinigung fuer Tierschutz e.V. (Veterinarians' Association for Animal Protection). Male inbreed rats (Sprague-Dawley, 200-250 g, Charles River, Sulzfeld, Germany) were used as tumor recipients.\nNovikoff hepatoma was used as the source of tumor cells. Of several tested, experimentally produced tumors, the Novikoff hepatoma best all requirements of a solid tumor having all signs of malignity and similarity to hepatocellular carcinoma in humans. The Novikoff hepatoma was induced by Alex B. Novikoff in […] by feeding a diet containing 0.06% […] (butter yellow) to female Sprague-Dawley rats (Novikoff B., A transplantable rat liver tumour induced by 4-dimethylaminoazobenzene. Cancer Res. 1951; 17:1010). […] The chromatin structure in the tumor cells appears in an irregular form, and the nuclei are indented, round and oval.\nThe Deutsches Krebsforschungsinstitut in Heidelberg provided the Novikoff hepatoma cells. The cells were received in Hank's solution and intraperitoneally injected in a sterile manner into a Sprague-Dawley rat for passaging. Within a week, approximately 50 ml hemorrhagic ascites were generated and removed in a sterile manner. The pellet generated after centrifugation at 1,300 rpm for five minutes in a Falcon tube was prepped for further purification of cells from other ascites components by washing with 50 ml Dulbecco's MEM (Gibco BRL, Eggenstein) and centrifugation at 1,300 rpm for five minutes. The supernatant was decanted, and the pellet was mixed in Dulbecco's+40% fetal calf serum (FCS). 0.7 ml cell suspension and 0.7 freezing medium each were filled in Nunc tubes, airtight sealed, pre-cooled for five minutes at −20° C. and for 12 hours at −80° C., and then deep-frozen in liquid nitrogen. The freezing medium was 40% Dulbecco's, 40% FCS and 20% DMSO.\nThe cells were prepared for the application as follows: after thawing, the pellet was reacted in a Falcon tube with 50 ml of a medium (Dulbecco's+40% FCS), pre-heated to 37° C., and centrifuged for five minutes at 1,300 rpm. […]\nAfter centrifugation and decantation of the supernatant, the pellet was suspended in HBSS, 100 microlitres were sampled with an Eppendorf pipette and counted for determining the number of vital cells after vital staining with erythrosine (BioMed, Munich, Germany) in a Neubauer counting chamber. […]\nThe tumor size was determined by CT-supported volumetry. […]"}, "[3]": {"biological_target": "M2-PK (Homo sapiens, UniProt P14618)", "sequence (P14618 whole entry, species assumed)": "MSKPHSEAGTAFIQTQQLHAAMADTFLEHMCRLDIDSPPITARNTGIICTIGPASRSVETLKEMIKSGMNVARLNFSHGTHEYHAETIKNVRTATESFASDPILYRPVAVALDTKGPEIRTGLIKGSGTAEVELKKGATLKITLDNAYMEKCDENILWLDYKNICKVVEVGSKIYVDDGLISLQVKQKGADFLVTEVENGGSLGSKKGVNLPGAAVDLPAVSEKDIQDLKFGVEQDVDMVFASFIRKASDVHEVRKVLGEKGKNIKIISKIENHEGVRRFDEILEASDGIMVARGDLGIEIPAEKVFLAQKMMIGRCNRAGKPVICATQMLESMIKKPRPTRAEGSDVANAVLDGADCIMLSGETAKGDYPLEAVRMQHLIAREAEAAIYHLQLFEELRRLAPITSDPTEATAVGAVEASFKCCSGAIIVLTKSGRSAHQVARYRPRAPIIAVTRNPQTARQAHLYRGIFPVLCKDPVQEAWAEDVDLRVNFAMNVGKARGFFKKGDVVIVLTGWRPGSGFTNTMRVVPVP", "conditions": "known from Eigenbrodt et al. 1992; cited from earlier work"}, "[4]": {"biological_target": "T1, glutamate pyruvate transaminase (Homo sapiens, UniProt P24298)", "T1 sequence (P24298 2-496 limits assumed)": "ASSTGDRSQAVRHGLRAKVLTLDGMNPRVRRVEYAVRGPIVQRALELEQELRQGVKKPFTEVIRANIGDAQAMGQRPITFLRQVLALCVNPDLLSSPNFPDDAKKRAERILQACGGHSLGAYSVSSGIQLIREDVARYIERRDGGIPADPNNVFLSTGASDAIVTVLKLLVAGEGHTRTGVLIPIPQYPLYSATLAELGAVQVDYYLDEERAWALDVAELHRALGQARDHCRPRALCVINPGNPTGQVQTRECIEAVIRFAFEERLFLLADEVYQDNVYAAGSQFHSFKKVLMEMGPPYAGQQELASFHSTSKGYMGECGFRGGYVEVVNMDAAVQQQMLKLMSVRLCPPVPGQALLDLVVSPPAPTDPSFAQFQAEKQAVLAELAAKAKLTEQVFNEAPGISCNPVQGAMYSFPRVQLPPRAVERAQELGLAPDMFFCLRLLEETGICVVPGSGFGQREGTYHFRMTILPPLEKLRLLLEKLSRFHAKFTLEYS", "conditions": "known from Eigenbrodt et al. 1994; cited from earlier work"}, "[5]": {"tested_on": "cells", "conditions": "known from Eigenbrodt et al. 1994; cited from earlier work"}}, "data": [{"smiles": "O=C(O)C(COP(=O)(O)O)OP(=O)(O)O", "note": "(stereo not drawn) [glycerate-2,3-bisphosphate]", "values": [{"measurement": "inhibition of cell density (proliferation)", "setting": "[1]", "value": "practically complete inhibition"}]}, {"smiles": "CC(O)=C(C#N)C(=O)Nc1ccc(C(F)(F)F)cc1", "note": "[CHBA, 2-cyano-3-hydroxy-but-2-(4-trifluoromethyl-phenyl)-amide]", "values": [{"measurement": "inhibition of cell density (proliferation)", "setting": "[1]", "value": "practically complete inhibition"}, {"measurement": "inhibition of tumor growth if the tumor was relatively small at the beginning of the treatment", "setting": "[2]", "value": "practically complete inhibition"}, {"measurement": "inhibition of the tumor growth (tumor size)", "setting": "[2]", "value": "substantial inhibition"}]}, {"smiles": "O=C(COP(=O)(O)O)[C@@H](O)[C@H](O)[C@H](O)COP(=O)(O)O", "note": "[fructose-1,6-bisphosphate]", "values": [{"measurement": "inhibition of cell density (proliferation)", "setting": "[1]", "value": "practically complete inhibition"}, {"measurement": "displacement of the dimeric form to the highly active tetrameric form of M2-PK", "setting": "[3]", "value": "leads to a displacement of the dimeric form to the highly active tetrameric form"}]}, {"smiles": "C[C@H](N)C(=O)O", "note": "[alanine]", "values": [{"measurement": "inhibition of M2-PK", "setting": "[3]", "value": "inhibit"}]}, {"smiles": "CC(C)C[C@H](N)C(=O)O", "note": "[leucine]", "values": [{"measurement": "inhibition of M2-PK", "setting": "[3]", "value": "inhibit"}]}, {"smiles": "NOCC(=O)O", "note": "[aminooxyacetate]", "values": [{"measurement": "inhibition of cell density (proliferation)", "setting": "[1]", "value": "practically complete inhibition"}, {"measurement": "inhibition of glutamate pyruvate transaminase", "setting": "[4]", "value": "inhibit"}, {"measurement": "inhibition of the proliferation of cells", "setting": "[5]", "value": "can inhibit"}, {"measurement": "inhibition of tumor growth if the tumor was relatively small at the beginning of the treatment", "setting": "[2]", "value": "practically complete inhibition"}, {"measurement": "inhibition of the tumor growth (tumor size)", "setting": "[2]", "value": "substantial inhibition"}]}, {"smiles": "N[C@@H]1CON=C1O", "note": "[cycloserine, reference compound]", "values": [{"measurement": "inhibition of glutamate pyruvate transaminase", "setting": "[4]", "value": "inhibit"}, {"measurement": "inhibition of the proliferation of cells", "setting": "[5]", "value": "can inhibit"}]}]}
